Assay results reported in patent US7592366B2, “Therapeutic compounds” (Allergan, Inc., priority 2006, dated 2009).

Key:
[1] = target: EP2 (Homo sapiens, UniProt P43116); experiment: cAMP assay, EP2; type: cell-based; design: expressed in transfected cells; host or cells: HEK-EBNA; settings: HEK-EBNA cells expressing EP2
Procedure: A 384-well drug plate was prepared to contain 6 test compounds, PGE2 and cAMP in 16 serial dilutions in triplicate, using a Biomek station. HEK-EBNA cells expressing a target PG receptor subtype (EP2 or EP4) were suspended in a stimulation buffer (HBSS, 0.1% BSA, 0.5 mM IBMX and 5 mM HEPES, pH 7.4) in a density of 10^4 cells/5 μl. The reaction was initiated by mixing 5 μL drug dilutions with 5 μl of HEK-EBNA cells in a well, carried out for 30 min at room temperature, and followed by the addition of 5 μl anti-cAMP acceptor beads in the control buffer with Tween-20 (25 mM NaCl, 0.03% Tween-20, 5 mM HEPES, pH7.4). After 30 min in the dark at room temperature, the mixtures were incubated with 15 μl biotinylated-cAMP/strepavidin donor beads in Lysis/Detection buffer (0.1% BSA, 0.3% Tween-20 and 5 mM HEPES, pH7.4) for 45 min at the room temperature. Fluorescence changes were read using a Fusion-alpha HT microplate reader.

[2] = target: T1, EP4 receptors (Homo sapiens, UniProt P35408); experiment: Radioligand binding [3H]PGE2, EP4 Ki; settings: [3H]PGE2 competition, HEK-293 cells expressing EP4
T1 construct: expressed in transfected cells; host or cells: HEK-293
T1 sequence (P35408 whole entry): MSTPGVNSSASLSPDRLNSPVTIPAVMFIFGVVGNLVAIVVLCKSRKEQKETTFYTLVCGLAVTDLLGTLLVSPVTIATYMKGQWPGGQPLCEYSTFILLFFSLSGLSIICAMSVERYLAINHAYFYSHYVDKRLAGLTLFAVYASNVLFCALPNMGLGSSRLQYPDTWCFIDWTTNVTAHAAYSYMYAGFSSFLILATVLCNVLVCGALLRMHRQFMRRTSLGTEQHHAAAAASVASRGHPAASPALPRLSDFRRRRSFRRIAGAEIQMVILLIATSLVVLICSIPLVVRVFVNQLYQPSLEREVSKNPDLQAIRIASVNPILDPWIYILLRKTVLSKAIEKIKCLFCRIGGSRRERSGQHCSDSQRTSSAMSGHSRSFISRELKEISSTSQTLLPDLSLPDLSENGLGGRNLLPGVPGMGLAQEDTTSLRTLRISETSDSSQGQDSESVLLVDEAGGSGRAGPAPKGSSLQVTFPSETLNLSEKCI
Procedure: HEK-293 cells stably expressing the human or feline FP receptor, or EP1, EP2, or EP4 receptors were washed with TME buffer, scraped from the bottom of the flasks, and homogenized for 30 sec using a Brinkman PT 10/35 polytron. TME buffer was added to achieve a final 40 ml volume in the centrifuge tubes (the composition of TME is 100 mM TRIS base, 20 mM MgCl2, […]; 10N HCl is added to achieve a pH of 7.4).
The cell homogenate was centrifuged at 19000 r.p.m. for 20 min at 4° C. using a Beckman Ti-60 rotor. The resultant pellet was resuspended in TME buffer to give a final 1 mg/ml protein concentration, as determined by Biorad assay. Radioligand binding competition assays vs. [^3H-]17-phenyl PGF2α (5 nM) were performed in a 100 μl volume for 60 min. Binding reactions were started by adding plasma membrane fraction. The reaction was terminated by the addition of 4 ml ice-cold TRIS-HCl buffer and rapid filtration through glass fiber GF/B filters using a Brandel cell harvester. The filters were washed 3 times with ice-cold buffer and oven dried for one hour.
[^3H-] PGE2 (specific activity 180 Ci mmol) was used as the radioligand for EP receptors. [^3H] 17-phenyl PGF2α was employed for FP receptor binding studies. Binding studies employing EP1, EP2, EP4 and FP receptors were performed in duplicate in at least three separate experiments. A 200 μl assay volume was used. Incubations were for 60 min at 25° C. and were terminated by the addition of 4 ml of ice-cold 50 mM TRIS-HCl, followed by rapid filtration through Whatman GF/B filters and three additional 4 ml washes in a cell harvester (Brandel). Competition studies were performed using a final concentration of 5 nM [^3H]-PGE2, or 5 nM [^3H] 17-phenyl PGF2α and non-specific binding determined with 10^−5M of unlabeled PGE2, or 17-phenyl PGF2α, according to receptor subtype studied.

[3] = target: T2, hEP3A/Gqi5 (Homo sapiens, UniProt P43115); experiment: FLIPR calcium signal, hEP3A; type: cell-based; settings: read-out: Other Receptors (EC50 in nM) hEP3A
T2 construct: expressed in transfected cells; host or cells: HEK-293(EBNA)
T2 sequence (P43115 1-390): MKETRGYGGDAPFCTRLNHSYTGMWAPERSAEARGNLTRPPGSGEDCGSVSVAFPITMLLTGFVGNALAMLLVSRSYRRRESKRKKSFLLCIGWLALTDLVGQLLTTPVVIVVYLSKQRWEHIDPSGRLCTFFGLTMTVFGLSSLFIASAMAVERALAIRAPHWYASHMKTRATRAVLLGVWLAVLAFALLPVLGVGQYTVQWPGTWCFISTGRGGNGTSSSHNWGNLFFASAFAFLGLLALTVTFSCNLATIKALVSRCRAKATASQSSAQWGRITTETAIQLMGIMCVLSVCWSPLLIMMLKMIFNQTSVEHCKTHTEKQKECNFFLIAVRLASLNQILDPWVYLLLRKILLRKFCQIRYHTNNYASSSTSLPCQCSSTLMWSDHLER
Procedure: (§1) HEK-293(EBNA) cells, stably expressing one type or subtype of recombinant human prostaglandin receptors (prostaglandin receptors expressed: hDP/Gqs5; hEP1; hEP2/Gqs5; hEP3A/Gqi5; hEP4/Gqs5; hFP; hIP; hTP), were cultured in 100 mm culture dishes in high-glucose DMEM medium containing 10% fetal bovine serum, 2 mM l-glutamine, 250 μg/ml geneticin (G418) and 200 μg/ml hygromycin B as selection markers, and 100 units/ml penicillin G, 100 μg/ml streptomycin and 0.25 μg/ml amphotericin B.
Cells were seeded at a density of 5×10^4 cells per well in Biocoat® Poly-D-lysine-coated black-wall, clear-bottom 96-well plates (Becton-Dickinson) and allowed to attach overnight in an incubator at 37° C. Cells were then washed two times with HBSS-HEPES buffer (Hanks Balanced Salt Solution without bicarbonate and phenol red, 20 mM HEPES, pH 7.4) using a Denley Cellwash plate washer (Labsystems). […]
Cells were excited with an Argon laser at 488 nm, and emission was measured through a 510-570 nm bandwidth emission filter (FLIPR™, Molecular Devices, Sunnyvale, Calif.). […] The peak increase in fluorescence intensity was recorded for each well. […] The peak fluorescence change in each drug-containing well was then expressed relative to the controls. […]

[4] = target: T3, hEP2/Gqs5 (Homo sapiens, UniProt P43116); experiment: FLIPR calcium signal, EP2; type: cell-based; settings: HEK-293(EBNA) cells
T3 construct: expressed in transfected cells; host or cells: HEK-293(EBNA)
T3 sequence (P43116 whole entry): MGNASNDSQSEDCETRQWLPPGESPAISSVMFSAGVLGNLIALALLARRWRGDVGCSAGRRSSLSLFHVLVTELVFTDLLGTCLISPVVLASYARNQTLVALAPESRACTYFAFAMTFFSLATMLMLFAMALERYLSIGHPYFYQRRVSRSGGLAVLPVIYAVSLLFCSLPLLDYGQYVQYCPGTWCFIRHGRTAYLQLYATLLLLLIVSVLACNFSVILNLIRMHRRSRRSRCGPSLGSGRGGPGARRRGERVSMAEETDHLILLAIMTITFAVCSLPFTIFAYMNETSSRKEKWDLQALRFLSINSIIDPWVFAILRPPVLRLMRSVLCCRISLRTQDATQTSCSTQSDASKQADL
Procedure: as §1
Cells were seeded at a density of 5×10^4 cells per well in Biocoat® Poly-D-lysine-coated black-wall, clear-bottom 96-well plates (Becton-Dickinson) and allowed to attach overnight in an incubator at 37° C. Cells were then washed two times with HBSS-HEPES buffer (Hanks Balanced Salt Solution without bicarbonate and phenol red, 20 mM HEPES, pH 7.4) using a Denley Cellwash plate washer (Labsystems). After 45 minutes of dye-loading in the dark, using the calcium-sensitive dye Fluo-4 […] at a final concentration of 2 μM, plates were washed four times with HBSS-HEPES buffer to remove excess dye leaving 100 μl in each well. Plates were re-equilibrated to 37° C. for a few minutes.
Cells were excited with an Argon laser at 488 nm, and emission was measured through a 510-570 nm bandwidth emission filter (FLIPR™, Molecular Devices, Sunnyvale, Calif.). Drug solution was added in a 50 μl volume to each well to give the desired final concentration. The peak increase in fluorescence intensity was recorded for each well. On each plate, four wells each served as negative (HBSS-HEPES buffer) and positive controls (standard agonists: BW245C (hDP); PGE2 (hEP1; hEP2/Gqs5; hEP3A/Gqi5; hEP4/Gqs5); PGF2α (hFP); carbacyclin (hIP); U-46619 (hTP), depending on receptor). The peak fluorescence change in each drug-containing well was then expressed relative to the controls.
Compounds were tested in a high-throughput (HTS) or concentration-response (CoRe) format. In the HTS format, forty-four compounds per plate were examined in duplicates at a concentration of 10^−5 M. To generate concentration-response curves, four compounds per plate were tested in duplicates in a concentration range between 10^−5 and 10^−11 M. The duplicate values were averaged. In either, HTS or CoRe format each compound was tested on at least 3 separate plates using cells from different passages to give an n≧3.

EP2, sequence (P43116 whole entry): as above

EC50 [1]	Ki [2]	EC50 [3]	EC50 [4]	SMILES
0.1 nM	2570 nM	8540 nM	10 nM	O=C(O)c1ccc(CCC[C@@H]2[C@@H](CCc3cc(F)cc(F)c3)[C@H](O)C[C@H]2Cl)s1 [11d, 5-(3-((1R,2R,3R,5R)-5-chloro-2-(3,5-difluorophenethyl)-3-hydroxycyclopentyl)propyl)thiophene-2-carboxylic acid]
4 nM	> 10000 nM	> 10000 nM	501 nM	O=C(O)c1ccc(CCC[C@@H]2[C@@H](CCc3cc(Cl)cc(Cl)c3)[C@@H](O)C[C@H]2Cl)s1 [compound 17, 5-(3-((1R,2R,3S,5R)-5-chloro-2-(3,5-dichlorophenethyl)-3-hydroxycyclopenty)propyl)thiophene-2-carboxylic acid]
